Laboratory results as given in patent US10266548B2, “Substituted benzylindazoles for use as Bub1 kinase inhibitors in the treatment of hyperproliferative diseases” (Bayer Intellectual Property GmbH, priority 2011, dated 2019).
Several values for one entry are separate records, joined by “and”; a condition that tells them apart may be missing. Identical values can stand only once. Like-named read-outs stand apart in the source and are kept apart here.

Tests used:
HeLa cells = assay: Proliferation assay (HeLa cell line); assay type: cell-based; details: read-out: Biological Assay 2: Proliferation assay (HeLa cell line) median IC50
Method: Cultivated tumor cells (cells were ordered from ATCC, except HeLa-MaTu and HeLa-MaTu-ADR, which were ordered from EPO-GmbH, Berlin) were plated at a density of 1000 to 5000 cells/well, depending on the growth rate of the respective cell line, in a 96-well multititer plate in 200 μL of their respective growth medium supplemented 10% fetal calf serum. After 24 hours, the cells of one plate (zero-point plate) were stained with crystal violet (see below), while the medium of the other plates was replaced by fresh culture medium (200 μl), to which the test substances were added in various concentrations (0 μM, as well as in the range of 0.001-10 μM; the final concentration of the solvent dimethyl sulfoxide was 0.5%). The cells were incubated for 4 days in the presence of test substances. Cell proliferation was determined by staining the cells with crystal violet: the cells were fixed by adding 20 μl/measuring point of an 11% glutaric aldehyde solution for 15 minutes at room temperature. After three washing cycles of the fixed cells with water, the plates were dried at room temperature. The cells were stained by adding 100 μl/measuring point of a 0.1% crystal violet solution (pH 3.0). After three washing cycles of the stained cells with water, the plates were dried at room temperature. The dye was dissolved by adding 100 μl/measuring point of a 10% acetic acid solution. […] The change of cell number, in percent, was calculated by normalization of the measured values to the aborbtion values of the zero-point plate (=0%) and the absorbtion of the untreated (0 μm) cells (=100%). The IC50 values were determined by means of a 4 parameter fit using the company's own software.

[1] = target: catalytic domain of human Bub1 (amino acids 704-1085) (Homo sapiens (Human), UniProt O43683); assay: Bub1 kinase assay (TR-FRET); assay type: biochemical; details: 10 μM ATP, 1 μM peptide substrate; read-out: Biological Assay 1: Bub1 kinase assay median IC50
In short: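 Phosphoserine product detected by TR-FRET (Eu-labeled anti-mouse IgG/anti-phosphoserine antibody to streptavidin-XL665) after 1 h at 22 °C. IC50 from 4-parameter logistic fit.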

[2] = Homo sapiens, 96 h, 4 days, crystal violet

Chain of catalytic domain of human Bub1 (amino acids 704-1085) (O43683 704-1085): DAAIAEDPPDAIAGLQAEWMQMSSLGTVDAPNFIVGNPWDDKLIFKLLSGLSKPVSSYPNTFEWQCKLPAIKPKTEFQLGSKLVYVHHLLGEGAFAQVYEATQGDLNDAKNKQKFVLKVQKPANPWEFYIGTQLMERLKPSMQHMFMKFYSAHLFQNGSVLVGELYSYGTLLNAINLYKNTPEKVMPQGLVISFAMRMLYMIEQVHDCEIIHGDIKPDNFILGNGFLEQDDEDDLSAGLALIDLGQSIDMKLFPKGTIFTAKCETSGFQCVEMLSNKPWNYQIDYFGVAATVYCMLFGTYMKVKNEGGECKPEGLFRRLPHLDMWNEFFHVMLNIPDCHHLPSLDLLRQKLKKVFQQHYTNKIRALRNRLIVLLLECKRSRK

Row | IC50 (HeLa cells; [2]) [nM] | IC50 (HeLa cells; 4 days, crystal violet) [nM] | SMILES | IC50 [1] | IC50 (HeLa cells; Homo sapiens, 96 h) [nM]
1 | ≥ 10000 | – | COc1cnc(-c2nn(Cc3ccc(C#N)cc3)c3ccccc23)nc1Nc1ccncc1 [Example 2-42-1, 4-({3-[5-methoxy-4-(pyridin-4-ylamino)pyrimidin-2-yl]-1H-indazol-1-yl}methyl)benzonitrile] | 190 nM | –
2 | ≥ 10000 | – | COc1cnc(-c2nn(Cc3ccc(S(=O)(=O)N4CCOCC4)cc3)c3ccccc23)nc1Nc1ccncc1 [Example 2-43-1, 5-methoxy-2-{1-[4-(morpholin-4-ylsulfonyl)benzyl]-1H-indazol-3-yl}-N-(pyridin-4-yl)pyrimidin-4-amine] | 1200 nM | –
3 | – | – | COc1cnc(-c2nn(Cc3c(F)ccc(C)c3F)c3ccccc23)nc1Nc1ccncc1 [Example 2-48-1, 2-[1-(2,6-difluoro-3-methylbenzyl)-1H-indazol-3-yl]-5-methoxy-N-(pyridin-4-yl)pyrimidin-4-amine] | 5.5 nM | ≥ 10000
4 | – | – | COc1cnc(-c2nn(Cc3c(F)cc(C(N)=O)cc3F)c3ccccc23)nc1Nc1ccncc1 [Example 2-50-1, 3,5-difluoro-4-({3-[5-methoxy-4-(pyridin-4-ylamino)pyrimidin-2-yl]-1H-indazol-1-yl}methyl)benzamide] | 11 nM | ≥ 10000
5 | – | – | COc1cnc(-c2nn(Cc3c(F)cc(OCCOC(C)=O)cc3F)c3ccccc23)nc1Nc1ccncc1 [Example 2-51-1, 2-[3,5-difluoro-4-({3-[5-methoxy-4-(pyridin-4-ylamino)pyrimidin-2-yl]-1H-indazol-1-yl}methyl)phenoxy]ethyl acetate] | 10 nM | 2700
6 | – | – | CCCOc1cc(F)c(Cn2nc(-c3ncc(OC)c(Nc4ccncc4)n3)c3ccccc32)c(F)c1 [Example 2-52-1, 2-[1-(2,6-difluoro-4-propoxybenzyl)-1H-indazol-3-yl]-5-methoxy-N-(pyridin-4-yl)pyrimidin-4-amine] | 11 nM | 2100
7 | – | 3400 | CCOc1cc(F)c(Cn2nc(-c3ncc(OC)c(Nc4ccncc4)n3)c3ccccc32)c(OC)c1 [Example 2-53-1] | 83 nM | –
8 | – | – | CCOc1cc(F)c(Cn2nc(-c3ncc(O)c(Nc4ccncc4)n3)c3ccccc32)c(F)c1 [Example 3-1, 2-[1-(4-ethoxy-2,6-difluorobenzyl)-1H-indazol-3-yl]-4-(pyridin-4-ylamino)pyrimidin-5-ol] | 4.7 nM | ≥ 10000
9 | – | – | COc1ccc(Cn2nc(-c3ncc(O)c(Nc4ccncc4)n3)c3ccccc32)cc1 [Example 3-2, 2-[1-(4-methoxybenzyl)-1H-indazol-3-yl]-4-(pyridin-4-ylamino) pyrimidin-5-ol] | 9.8 nM | ≥ 10000
10 | – | – | Oc1cnc(-c2nn(Cc3ccccc3F)c3ccccc23)nc1Nc1ccncc1 [Example 3-3, 2-[1-(2-fluorobenzyl)-1H-indazol-3-yl]-4-(pyridin-4-ylamino)pyrimidin-5-ol] | 15 nM | ≥ 10000
11 | ≥ 10000 | – | Oc1cnc(-c2nn(Cc3ccc(F)cc3)c3ccccc23)nc1Nc1ccncc1 [Example 3-4, 2-[1-(4-fluorobenzyl)-1H-indazol-3-yl]-4-(pyridin-4-ylamino) pyrimidin-5-ol] | 48 nM | –
12 | – | – | CCOc1cc(F)c(Cn2nc(-c3ncc(OCC4(CO)COC4)c(Nc4ccncc4)n3)c3ccccc32)c(F)c1 [Example 4-1, {3-[({2-[1-(4-ethoxy-2,6-difluorobenzyl)-1H-indazol-3-yl]-4-(pyridin-4-ylamino)pyrimidin-5-yl}oxy)methyl]oxetan-3-yl}methanol] | 2.4 nM | 3500
13 | – | – | NS(=O)(=O)COc1cnc(-c2nn(Cc3ccccc3F)c3ccccc23)nc1Nc1ccncc1 [Example 4-3, 1-({2-[1-(2-fluorobenzyl)-1H-indazol-3-yl]-4-(pyridin-4-ylamino)pyrimidin-5-yl}oxy)methane-sulfonamide] | 7.5 nM | 14000
14 | ≥ 10000 | – | Fc1ccccc1Cn1nc(-c2ncc(OCCc3nnn[nH]3)c(Nc3ccncc3)n2)c2ccccc21 [Example 4-5-1, 2-[1-(2-fluorobenzyl)-1H-indazol-3-yl]-N-(pyridin-4-yl)-5-[2-(1H-tetrazol-5-yl)ethoxy] pyrimidin-4-amine] | 18 nM | –
15 | – | – | CN(C)CCOc1cnc(-c2nn(Cc3ccc(F)cc3)c3ccccc23)nc1Nc1ccncc1 [Example 4-6, 5-[2-(dimethyl-amino)ethoxy]-2-[1-(4-ftuorobenzyl)-1H-indazol-3-yl]-N-(pyridin-4-yl)pyrimidin-4-amine] | 29 nM | 3600
16 | ≥ 10000 | – | Fc1ccccc1Cn1nc(-c2ncc(OCc3nnn[nH]3)c(Nc3ccncc3)n2)c2ccccc21 [Example 4-7, 2-[1-(2-fluorobenzyl)-1H-indazol-3-yl]-N-(pyridin-4-yl)-5-(1H-tetrazol-5-ylmethoxy) pyrimidin-4-amine] | 35 nM | –
17 | – | – | CCOc1cc(F)c(Cn2nc(-c3ncc(OCCOC)c(Nc4ccncc4)n3)c3ccccc32)c(F)c1 [Example 4-10, 2-[1-(4-ethoxy-2,6-difluorobenzyl)-1H-indazol-3-yl]-5-(2-methoxyethoxy)-N-(pyridin-4-yl)pyrimidin-4-amine] | 9 nM | 4400
18 | – | – | COCc1noc(COc2cnc(-c3nn(Cc4ccccc4F)c4ccccc34)nc2Nc2ccncc2)n1 [Example 4-13, 2-[1-(2-fluorobenzyl)-1H-indazol-3-yl]-5-{[3-(methoxymethyl)-1,2,4-oxadiazol-5-yl]methoxy}-N-(pyridin-4-yl)pyrimidin-4-amine] | 76 nM and 7.6 nM | 8000
19 | ≥ 10000 | – | CCOC(=O)COc1cnc(-c2nn(Cc3c(F)cc(OCC)cc3F)c3ccccc23)nc1Nc1ccncc1 [Example 4-14, ethyl ({2-[1-(4-ethoxy-2,6-difluorobenzyl)-1H-indazol-3-yl]-4-(pyridin-4-ylamino)pyrimidin-5-yl}oxy)acetate] | 12 nM | –
20 | – | – | CCOc1cc(F)c(Cn2nc(-c3ncc(OCC(=O)N4CC(F)C4)c(Nc4ccncc4)n3)c3ccccc32)c(F)c1 [Example 4-21, 2-({2-[1-(4-ethoxy-2,6-difluorobenzyl)-1H-indazol-3-yl]-4-(pyridin-4-ylamino)pyrimidin-5-yl}oxy)-1-(3-fiuoroazetidin-1-yl)ethanone] | 7.8 nM | 3800
21 | 4900 | – | CCOc1cc(F)c(Cn2nc(-c3ncc(OCCNC(=O)OC(C)(C)C)c(Nc4ccncc4)n3)c3ccccc32)c(F)c1 [Example 4-23, tert-butyl [2-({2-[1-(4-ethoxy-2,6-difluorobenzyl)-1H-indazol-3-yl]-4-(pyridin-4-ylamino)pyrimidin-5-yl}oxy)ethyl]carbamate] | 9.3 nM | –
22 | – | – | CCOc1cc(F)c(Cn2nc(-c3nccc(Nc4ccncc4)n3)c3ccccc32)c(F)c1 [Example 5-1, 2-[1-(4-ethoxy-2,6-difluorobenzyl)-1H-indazol-3-yl]-N-(pyridin-4-yl)pyrimidin-4-amine] | 5.2 nM | 1400
23 | – | – | Fc1ccccc1Cn1nc(-c2nccc(Nc3ccncc3)n2)c2ccccc21 [Example 5-3, 2-[1-(2-fluorobenzyl)-1H-indazol-3-yl]-N-(pyridin-4-yl)pyrimidin-4-amine] | 28 nM | 7400
24 | 3100 | – | COc1cnc(-c2nn(Cc3c(F)cc(C4CC4)cc3F)c3ccccc23)nc1Nc1ccncc1 [Example 6-1, 2-[1-(4-cyclopropyl-2,6-difluorobenzyl)-1H-indazol-3-yl]-5-methoxy-N-(pyridin-4-yl)pyrimidin-4-amine] | 3.9 nM | –
25 | – | – | COc1cnc(-c2nn(Cc3c(F)cc(C(C)=O)cc3F)c3ccccc23)nc1Nc1ccncc1 [Example 7-1, 1-[3,5-difluoro-4-({3-[5-methoxy-4-(pyridin-4-ylamino)pyrimidin-2-yl]-1H-indazol-1-yl}methyl)phenyl]ethanone] | 3 nM | 4400
26 | – | 3200 | COc1cnc(-c2nn(Cc3c(Cl)ccc(CO)c3Cl)c3ccccc23)nc1Nc1ccncc1 [Example 8-1, [2,4-dichloro-3-({3-[5-methoxy-4-(pyridin-4-ylamino)pyrimidin-2-yl]-1H-indazol-1-yl}methyl)phenyl]methanol] | 7.4 nM | –
27 | 5500 | – | COc1cnc(-c2nn(Cc3cccc(CCO)c3)c3ccccc23)nc1Nc1ccncc1 [Example 8-2, 2-[3-({3-[5-methoxy-4-(pyridin-4-ylamino)pyrimidin-2-yl]-1H-indazol-1-yl}methyl)phenyl] ethanol] | 21 nM | –
28 | ≥ 10000 | – | COc1cnc(-c2nn(Cc3cccc(C(C)(C)CO)c3)c3ccccc23)nc1Nc1ccncc1 [Example 8-3, 2-[3-({3-[5-methoxy-4-(pyridin-4-ylamino)pyrimidin-2-yl]-1H-indazol-1-yl}methyl)phenyl]-2-methylpropan-1-ol] | 240 nM | –
